Source: paper PMC12548168, “Pitavastatin is a novel Mcl-1 inhibitor that overcomes paclitaxel resistance in triple-negative breast cancer” (Experimental Hematology & Oncology, 2025)

Experiments:
[1] = target: T1, Mcl-1 (myeloid cell leukemia 1) (Homo sapiens, UniProt Q07820); assay: surface plasmon resonance (SPR), reference Mcl-1 inhibitor (Supplementary Fig. S2); assay type: binding
T1 construct: gene MCL1

[2] = target: T1, Mcl-1 (myeloid cell leukemia 1); assay: surface plasmon resonance (SPR); assay type: binding

T1 sequence (Q07820 whole entry): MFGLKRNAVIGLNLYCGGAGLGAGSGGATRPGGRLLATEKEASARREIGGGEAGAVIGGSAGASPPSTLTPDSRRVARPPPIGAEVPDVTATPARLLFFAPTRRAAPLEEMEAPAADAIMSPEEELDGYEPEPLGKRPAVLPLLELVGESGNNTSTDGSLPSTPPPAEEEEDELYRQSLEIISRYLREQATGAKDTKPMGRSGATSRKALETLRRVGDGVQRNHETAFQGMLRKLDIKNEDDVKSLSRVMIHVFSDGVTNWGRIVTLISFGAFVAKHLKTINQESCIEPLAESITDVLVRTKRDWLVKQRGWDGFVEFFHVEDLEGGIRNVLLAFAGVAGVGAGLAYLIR

SMILES | Kd [1] [µM] | Kd [2] [µM]
Cc1cc2c(C(C)C)c(O)c(O)c(C=O)c2c(O)c1-c1c(C)cc2c(C(C)C)c(O)c(O)c(C=O)c2c1O [AT101] | 9.48 | –
O=C(O)C[C@H](O)C[C@H](O)/C=C/c1c(C2CC2)nc2ccccc2c1-c1ccc(F)cc1 [PITA, Pitavastatin] | – | 3.91
